The subject of one series is Acinetobacter baumannii. Briefly: Antibacterial activity against Acinetobacter baumannii ATCC BAA-1605 after 24 hrs. Format: functional. The conditions noted are these: ATCC BAA-1605, 24 h.
For another series, the system named is CHO-K1. Description: Cytotoxicity against CHOK1 cells after 24 hrs by MTT assay. The settings on record: Cricetulus griseus, CHO-K1, 24 h. In kind it is cell-based.
For series [1], the system named is Mycobacteroides abscessus. Description: Antibacterial activity against Mycobacterium abscessus after 7 days by alamar blue assay. The settings on record: 168 h. Format: functional.
In a further series the test system is HeLa. Description: Cytotoxicity against human HeLa cells after 24 hrs by MTT assay. In kind it is functional, cell-based.
A short description of series [2]: Cytotoxicity against HEK cells after 24 hrs by MTT assay. In kind it is cell-based. The conditions noted are these: Homo sapiens, HEK293, 24 h.
The next series deals with Pseudomonas aeruginosa. Briefly: Antibacterial activity against Pseudomonas aeruginosa ATCC 27853 after 24 hrs. In kind it is functional. The settings on record: ATCC 27853, 24 h.
Series [3] relates to Mycobacterium tuberculosis. Description: Antitubercular activity against Mycobacterium tuberculosis H37Rv after 7 days by alamar blue assay. In kind it is functional. The settings on record: 168 h.
The subject of the next series is Mycobacteroides chelonae. Briefly: Antibacterial activity against Mycobacterium chelonae after 7 days by alamar blue assay. Format: functional. The conditions noted are these: 168 h.
The next series has as its system Klebsiella pneumoniae. Description: Antibacterial activity against Klebsiella pneumoniae ATCC BAA-1705 after 24 hrs. Format: functional. The conditions noted are these: ATCC BAA-1705, 24 h.
Series [4] is described as follows: Cytotoxicity against […] B16 cells after 24 hrs by MTT assay. In kind it is functional, cell-based. The settings on record: B16, 24 h.
Series [5] is described as follows: Selectivity index, ratio of IC50 for CHOK1 cells to MIC for Mycobacterium tuberculosis H37Rv. Format: toxicity. The settings on record: hamster, read-out: Selectivity Index.
Another series concerns Escherichia coli. Briefly: Antibacterial activity against Escherichia coli ATCC 25922 after 24 hrs. Format: functional. The conditions noted are these: ATCC 25922, 24 h.
For series [6], the system named is Mycolicibacterium fortuitum. Briefly: Antibacterial activity against Mycobacterium fortuitum after 7 days by alamar blue assay. In kind it is functional. The conditions noted are these: 168 h.
The test system of the next series is DU-145. Briefly: Cytotoxicity against human DU145 cells after 24 hrs by MTT assay. Format: functional, cell-based. The settings on record: DU-145, 24 h.
A further series has as its system Staphylococcus aureus. Description: Antibacterial activity against Staphylococcus aureus ATCC 29213 after 24 hrs. The conditions noted are these: ATCC 29213, 24 h. In kind it is functional.
The subject of another series is A549. Description: Cytotoxicity against human A549 cells after 24 hrs by MTT assay. In kind it is functional, cell-based. The conditions noted are these: A549, 24 h.
The next series has as its system MCF7. Briefly: Cytotoxicity against human MCF7 cells after 24 hrs by MTT assay. Format: functional, cell-based. The settings on record: MCF7, 24 h.
Another series concerns HepG2. Description: Cytotoxicity against human HepG2 cells after 24 hrs by MTT assay. In kind it is functional, cell-based. The conditions noted are these: HepG2, 24 h.

In brackets after ≈: the same amount, converted by molar mass.

With `Cc1ccc(N(C(=O)c2sc(C)nc2C)C(C(=O)NC2CCCCC2)c2ccccc2)c(C)c1` (stereo not given), the MIC was above 50 µM with Acinetobacter baumannii; above 50 µM in series [1]; above 50 µM with Pseudomonas aeruginosa; 12.5 µM (≈ 5.95 µg/mL) in series [3]; above 50 µM against Mycobacteroides chelonae; above 50 µM in the series on Klebsiella pneumoniae. For the same molecule, the MIC (in the series with Escherichia coli; in [6]; in the series on Staphylococcus aureus) was above 50 µM each time. Further, the IC50 in the series with CHO-K1 was determined as 43 µM; with HeLa, 9.43 µM; in series [2], 47 µM; in series [4] it was 29.8 µM; in the series on DU-145, 11.4 µM; with A549, 8.63 µM. Moreover, the concentration for half-maximal inhibition (IC50) in the series with MCF7 came out at 11.7 µM; in the series on HepG2, 12.6 µM. Moreover, the selectivity ratio in series [5] stood at 3.4.
In the case of `Cc1cc(C)c(N(C(=O)c2sc(C)nc2C)C(C(=O)NC2CCCCC2)c2ccccc2)c(C)c1` (stereo not given), the MIC is above 50 µM in the series on Acinetobacter baumannii; above 50 µM in [1]; above 50 µM in the series with Pseudomonas aeruginosa; 3.25 µM (≈ 1.59 µg/mL) in series [3]; above 50 µM against Mycobacteroides chelonae; above 50 µM against Klebsiella pneumoniae. Besides, the MIC (against Escherichia coli; in [6]; against Staphylococcus aureus) was above 50 µM each time. Further, the IC50 in the series on CHO-K1 is 25.9 µM; with HeLa it was 10.9 µM; in series [2] it was 51.2 µM; in series [4] it was 11.7 µM; in the series on DU-145 it was 11.7 µM; in the series on A549 it was 2.75 µM. Besides, the IC50 was 3.56 µM with MCF7 and 6.37 µM with HepG2. Also, the selectivity ratio in series [5] was 8.
On to `Cc1ccc(N(C(=O)c2sc(C)nc2C)C(C(=O)NC2CCCCC2)c2ccc(Cl)cc2)cc1` (stereo not given), for which the MIC against Acinetobacter baumannii is above 50 µM; in series [1], above 50 µM; against Pseudomonas aeruginosa it was above 50 µM; in series [3] it was 0.78 µM (≈ 0.387 µg/mL); against Mycobacteroides chelonae, above 50 µM; in the series with Klebsiella pneumoniae it was above 50 µM. The MIC (in the series with Escherichia coli; in series [6]; against Staphylococcus aureus) was above 50 µM in each case. Moreover, the IC50 in the series with CHO-K1 was 7.37 µM; in the series on HeLa, 11.9 µM; in [2] it was 11.8 µM; in series [4] it was 23 µM; with DU-145, 9 µM; in the series on A549 it was 10.3 µM. Also, the IC50 in the series with MCF7 was 3.19 µM; in the series on HepG2, 5.33 µM. Moreover, the selectivity ratio in series [5] was 8.9.
`Cc1ccc(N(C(=O)c2sc(C)nc2C)C(C(=O)NC2CCCCC2)c2ccncc2)cc1` (stereo not given): the MIC in the series on Acinetobacter baumannii is above 50 µM; in [1] it was above 50 µM; in the series with Pseudomonas aeruginosa it was above 50 µM; in [3] it was 12.5 µM (≈ 5.78 µg/mL); in the series with Mycobacteroides chelonae, above 50 µM; with Klebsiella pneumoniae, above 50 µM. Besides, the MIC (against Escherichia coli; in [6]; in the series with Staphylococcus aureus) was above 50 µM throughout. Further, the IC50 in the series with CHO-K1 was 141 µM; with HeLa, 11 µM; in series [2], 81.1 µM; in series [4], 23.9 µM; with DU-145, 14.5 µM; in the series with A549, 11.6 µM. Moreover, the IC50 worked out at 10.3 µM with MCF7 and 12 µM in the series with HepG2. The selectivity ratio in series [5] worked out at 11.3.
On to `Cc1ccc(N(C(=O)c2c(C)noc2C)C(C(=O)NC2CCCCC2)c2cccnc2)cc1` (stereo not given), for which the MIC in the series on Acinetobacter baumannii was above 50 µM; in series [1], above 50 µM; against Pseudomonas aeruginosa it was above 50 µM; in [3], 6.12 µM (≈ 2.73 µg/mL); in the series on Mycobacteroides chelonae, above 50 µM; in the series on Klebsiella pneumoniae it was above 50 µM. Further, the MIC (against Escherichia coli; in series [6]; against Staphylococcus aureus) was above 50 µM in each case. The IC50 in the series on CHO-K1 was found to be 112 µM; in the series with HeLa, 18.2 µM; in [2], 82 µM; in series [4], 40 µM; in the series on DU-145, 11 µM; in the series on A549, 12.9 µM. The IC50 with MCF7 was 5.39 µM; in the series on HepG2 it was 10.3 µM. Moreover, in series [5], the selectivity ratio turned out to be 17.9.

These data come from ChEMBL document CHEMBL4422644, “Synthesis and evaluation of α-aminoacyl amides as antitubercular agents effective on drug resistant tuberculosis” (Eur J Med Chem, 2019).
